Data reported in ChEMBL document CHEMBL1201862, “PubChem BioAssay data set” (2004).
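Cells were grown in 96-well plates and exposed to each compound for 48 hours at five concentrations; endpoints were interpolated linearly between bracketing concentrations, or set to the highest concentration if not reached. Here, GI50 denotes the concentration required for 50% inhibition of growth.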 The source made the active and inactive calls. Cut-off read from the data, not from the text of the source: active = GI50 up to about 1.1 µM and inactive = higher.

What was measured:
Test in all cases: NCI tumour cell line growth inhibition, 48 h
HOP-18 = test system: HOP-18
DMS-114 = test system: DMS-114
M19-MEL = test system: M19-MEL
KM-20L2 = test system: KM-20L2
DMS-273 = test system: DMS-273
LXFL 529 = test system: LXFL 529
DLD-1 = test system: DLD-1
XF498 = test system: XF498
RXF 631 = test system: RXF 631

Row | Structure (SMILES) | GI50 (HOP-18) | GI50 (DMS-114) | GI50 (M19-MEL) | GI50 (KM-20L2) | GI50 (DMS-273) | GI50 (LXFL 529) | GI50 (DLD-1) | GI50 (XF498) | GI50 (RXF 631)
1 | [N-]=[N+]=NC1(Cc2ccccc2)C(=O)Nc2ccccc2C1=O (configuration not stated) | > 100 µM (inactive) | > 100 µM (inactive) | > 100 µM (inactive) | > 100 µM (inactive) | > 100 µM (inactive) | > 100 µM (inactive) | > 100 µM (inactive) | > 100 µM (inactive) | 
2 | COC1CC(C)C(OC)c2cc(O)cc(c2O)NC(=O)/C(C)=C/C=C\C(C)C(OC(N)=O)/C(C)=C\C(C)C1OC (configuration not stated) | 0.0925 µM (active) | 0.406 µM (active) | 0.437 µM (active) | 0.188 µM (active) | 0.225 µM (active) | 0.191 µM (active) |  |  | 
3 | COc1ccc(/C=C/C(=O)c2cc(C(=O)O)c(OC)cc2OC)cc1OC | > 100 µM (inactive) | > 100 µM (inactive) | > 100 µM (inactive) | > 100 µM (inactive) | > 100 µM (inactive) | > 100 µM (inactive) | > 100 µM (inactive) |  | 
4 | CC(C)(C)c1cc(C2c3cc4c(cc3OC(O)(CO)C2C(=O)O)OCO4)cc(C(C)(C)C)c1O.CC(C)(C)c1cc(C2c3cc4c(cc3OC3(O)COC(=O)C23)OCO4)cc(C(C)(C)C)c1O (configuration not stated) | 7.78 µM (inactive) | 8.34 µM (inactive) | 13.8 µM (inactive) | 17 µM (inactive) | 14 µM (inactive) |  | 11.7 µM (inactive) |  | 13.1 µM (inactive)
5 | O=[PH](O)c1cc2ccccc2c2ccccc12 | > 100 µM (inactive) | > 100 µM (inactive) | > 100 µM (inactive) | > 100 µM (inactive) | > 100 µM (inactive) | > 100 µM (inactive) | > 100 µM (inactive) |  | 
6 | OC(CC1SCCCS1)c1ccccc1 (configuration not stated) | > 100 µM (inactive) | > 100 µM (inactive) | > 100 µM (inactive) | > 100 µM (inactive) | > 100 µM (inactive) | > 100 µM (inactive) | > 100 µM (inactive) | > 100 µM (inactive) | 
7 | O=C1C(=O)N(C(=O)c2ccc(Cl)c(Cl)c2)c2ccc(Cl)cc21 | > 100 µM (inactive) | 27.1 µM (inactive) | 18.8 µM (inactive) |  | > 100 µM (inactive) | 71.4 µM (inactive) | 73.5 µM (inactive) |  | 
8 | O=C(c1ccco1)N(C(=S)N1CCN(c2ccccc2)CC1)C1CCCCC1 | > 100 µM (inactive) | 38.7 µM (inactive) | > 100 µM (inactive) | 90.4 µM (inactive) | 59.4 µM (inactive) | 95.5 µM (inactive) | 85.1 µM (inactive) |  | 
9 | COc1cc(Nc2nc3cc(C(F)(F)F)ccc3nc2C)cc(OC)c1OC | < 0.01 µM (active) | 11.2 µM (inactive) |  |  | 5.2 µM (inactive) | 9.91 µM (inactive) | 7.1 µM (inactive) | 2.3 µM (inactive) | 
10 | C/C(=N\N)C(CN1CCCCC1)C(c1ccccc1)c1c(O)c2ccccc2oc1=O (configuration not stated) |  | > 100 µM (inactive) | > 100 µM (inactive) | > 100 µM (inactive) | > 100 µM (inactive) | > 100 µM (inactive) | > 100 µM (inactive) | > 100 µM (inactive) | > 100 µM (inactive)
11 | COC(=O)c1c(C)cc2c(c1O)C1(O)C(=O)c3cc4c(c(O)c3C(=O)C1(OC)C(O)C2)C(=O)C=C(NC1OC(C)C(OC)C(O)C1OC)C4=O (configuration not stated) |  | 0.0104 µM (active) | 0.0196 µM (active) | 0.104 µM (active) | 0.103 µM (active) | 0.0679 µM (active) | 0.0199 µM (active) | 0.114 µM (active) | 
12 | C/C(=N\NC(N)=S)c1cc(C)c(C)cc1C | 62.8 µM (inactive) | 21 µM (inactive) | 25.9 µM (inactive) | 35.6 µM (inactive) | 19.3 µM (inactive) | 27.7 µM (inactive) | 53.3 µM (inactive) | 23 µM (inactive) | 57.7 µM (inactive)
13 | O=[N+]([O-])c1ccc(/C(Cl)=C/c2ccc(/C=C(\Cl)c3ccc([N+](=O)[O-])cc3[N+](=O)[O-])cc2)c([N+](=O)[O-])c1 |  | > 100 µM (inactive) | > 100 µM (inactive) | 0.188 µM (active) | > 100 µM (inactive) | > 100 µM (inactive) | > 100 µM (inactive) |  | > 100 µM (inactive)
14 | CCCCCNC(=O)CCCCCCCCCCCNC(=O)CCCCCCCCCCN1C=CC(=CC=C2C=CC(=O)C=C2)C=C1 |  | 12.6 µM (inactive) | 34.4 µM (inactive) | > 100 µM (inactive) | 23.8 µM (inactive) | 5.86 µM (inactive) | > 100 µM (inactive) | 10.3 µM (inactive) | > 100 µM (inactive)
15 | COc1cc(CCc2ccc(N)cc2)cc(OC)c1OC | > 71 µM (inactive) | 34.3 µM (inactive) | 55.8 µM (inactive) | 44.2 µM (inactive) | 37.9 µM (inactive) | 59 µM (inactive) | > 100 µM (inactive) | 64.6 µM (inactive) | > 58.1 µM (inactive)
16 | CC(=O)OC(CC1(C)C(C)CCC23COC(=O)C2=CCCC31)c1ccoc1 (configuration not stated) |  | 29.9 µM (inactive) | 33.8 µM (inactive) | 19.3 µM (inactive) |  | 18.4 µM (inactive) | 26 µM (inactive) | 20.8 µM (inactive) | 
17 | Cc1oc2c(C)c3oc(=O)cc(C)c3cc2c1CN | > 100 µM (inactive) | 41.2 µM (inactive) | 31 µM (inactive) | 34.4 µM (inactive) |  | 37.5 µM (inactive) | 43.3 µM (inactive) | 20.7 µM (inactive) | 29.1 µM (inactive)
18 | COc1cc(-c2ccccc2)c(OC)cc1CCl | > 100 µM (inactive) | > 100 µM (inactive) | > 100 µM (inactive) | > 100 µM (inactive) | > 100 µM (inactive) |  | > 100 µM (inactive) | > 100 µM (inactive) | > 100 µM (inactive)
19 | O=C(NC1C(=O)NNC1c1ccccc1Cl)c1ccccc1 (configuration not stated) | > 100 µM (inactive) | > 100 µM (inactive) | > 100 µM (inactive) | > 100 µM (inactive) | > 100 µM (inactive) | > 100 µM (inactive) | > 100 µM (inactive) | > 100 µM (inactive) | 
20 | C#C[C@]1(O)CC[C@H]2[C@@H]3CCc4cc(O)ccc4[C@H]3CC[C@@]21C [ETHINYL ESTRADIOL] | > 100 µM (inactive) | 16.3 µM (inactive) | 17.1 µM (inactive) | 16.7 µM (inactive) | > 10 µM (inactive) | 21.5 µM (inactive) | 12.6 µM (inactive) | 28.7 µM (inactive) | 
21 | CC[C@@]1(OC(=O)C(N)CCC(=O)O)C(=O)OCc2c1cc1n(c2=O)Cc2cc3ccccc3nc2-1 (some centres not stated) | 0.217 µM (active) | 0.0493 µM (active) | 0.189 µM (active) | 0.474 µM (active) | 0.0183 µM (active) | 1.38 µM (inactive) | 1.48 µM (inactive) | 0.197 µM (active) | 
22 | C=C1C2CC(OC(C)=O)C3(C)C(c4ccoc4)OC(=O)[C@@H](O)[C@]13OC1C[C@H](OC(C)=O)C(C)(C)[C@H](CC(=O)OC)[C@]12C (some centres not stated) | > 100 µM (inactive) | > 100 µM (inactive) | > 100 µM (inactive) | > 100 µM (inactive) | > 100 µM (inactive) | > 100 µM (inactive) |  |  | > 100 µM (inactive)
23 | Cc1ccccc1NC(=O)c1ccc([N+](=O)[O-])cc1 | > 100 µM (inactive) | 74 µM (inactive) | > 100 µM (inactive) | > 100 µM (inactive) | 80.5 µM (inactive) | > 100 µM (inactive) | > 100 µM (inactive) | > 100 µM (inactive) | 
24 | O=C(O)Cc1ccccc1CCc1ccccc1Cl | 50.1 µM (inactive) |  | 95.5 µM (inactive) | > 100 µM (inactive) | > 100 µM (inactive) | > 100 µM (inactive) | > 100 µM (inactive) | > 100 µM (inactive) | 
25 | O=C(Nc1ccc([N+](=O)[O-])cc1C(=O)O)c1ccc([N+](=O)[O-])cc1 |  | 5.97 µM (inactive) | 61 µM (inactive) | 18.4 µM (inactive) | 31.2 µM (inactive) | 24.4 µM (inactive) | 35.4 µM (inactive) | 23.3 µM (inactive) | 21.1 µM (inactive)
26 | Cc1cc(N(CCC#N)CCC#N)ccc1/C=C(\NC(=O)/C=C/c1ccccc1)C(=O)NN |  | > 100 µM (inactive) | > 100 µM (inactive) | > 100 µM (inactive) | > 100 µM (inactive) | > 100 µM (inactive) | > 100 µM (inactive) | 25.6 µM (inactive) | 
27 | CCN(CC)CC1CCCCN1CC(=O)N1CC(C)C(=O)Nc2ccccc21 (configuration not stated) | > 100 µM (inactive) | > 100 µM (inactive) | > 100 µM (inactive) | > 100 µM (inactive) | > 100 µM (inactive) | > 100 µM (inactive) | > 100 µM (inactive) |  | 
28 | N#C/C(=C\c1ccc(O)c(O)c1)C(N)=O |  | 22.7 µM (inactive) | 78.7 µM (inactive) | 50.4 µM (inactive) | 57.7 µM (inactive) | 40.7 µM (inactive) | 48.2 µM (inactive) |  | 56 µM (inactive)
